What was measured:
Assay in all cases: biochemical
Set-up in all cases: Ubiquigent DUB profiler selectivity panel, remaining enzyme activity as % of control
Conditions in all cases: read-out: % of control remaining
[1] = biological target: T1, USP27x (Homo sapiens, UniProt A6NNY8)
T1 sequence (A6NNY8 1-438): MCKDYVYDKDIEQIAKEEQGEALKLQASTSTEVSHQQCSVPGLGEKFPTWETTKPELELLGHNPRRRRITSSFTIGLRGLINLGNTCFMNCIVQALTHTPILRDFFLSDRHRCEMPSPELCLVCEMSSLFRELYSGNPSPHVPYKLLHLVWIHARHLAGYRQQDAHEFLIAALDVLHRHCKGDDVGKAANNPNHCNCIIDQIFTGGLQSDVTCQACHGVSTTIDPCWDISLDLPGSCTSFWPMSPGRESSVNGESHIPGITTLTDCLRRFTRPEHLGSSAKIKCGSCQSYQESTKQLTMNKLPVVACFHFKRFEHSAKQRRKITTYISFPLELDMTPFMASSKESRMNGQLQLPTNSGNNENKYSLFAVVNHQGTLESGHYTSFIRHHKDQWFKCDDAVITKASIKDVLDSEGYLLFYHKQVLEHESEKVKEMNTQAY
How it was run: (§1)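 In YFP-PRKN-overexpressing hTERT-RPE1 cells, 1 h antimycin A plus oligomycin A (1 μM each) with CMPD-39, then Western blot of TOMM20 ubiquitylation. Target engagement: 2 h compound, then 10 min HA-Ub-PA at 37°C, read as USP30 shift. DUB panel (>40 enzymes) screened at 1-100 μM.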

[2] = biological target: T2, OTUD6B (Homo sapiens, UniProt Q8N6M0)
T2 sequence (Q8N6M0 1-293): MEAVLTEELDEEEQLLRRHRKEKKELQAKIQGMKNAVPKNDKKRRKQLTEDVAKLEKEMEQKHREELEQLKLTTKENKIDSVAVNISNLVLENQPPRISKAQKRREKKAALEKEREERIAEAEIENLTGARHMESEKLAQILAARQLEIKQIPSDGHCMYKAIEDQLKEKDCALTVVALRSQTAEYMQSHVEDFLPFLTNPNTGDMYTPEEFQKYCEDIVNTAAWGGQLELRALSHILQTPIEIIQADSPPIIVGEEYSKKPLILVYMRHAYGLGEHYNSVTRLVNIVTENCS
How it was run: as §1

[3] = biological target: T3, USP4 (Homo sapiens, UniProt Q13107)
T3 sequence (Q13107 1-963): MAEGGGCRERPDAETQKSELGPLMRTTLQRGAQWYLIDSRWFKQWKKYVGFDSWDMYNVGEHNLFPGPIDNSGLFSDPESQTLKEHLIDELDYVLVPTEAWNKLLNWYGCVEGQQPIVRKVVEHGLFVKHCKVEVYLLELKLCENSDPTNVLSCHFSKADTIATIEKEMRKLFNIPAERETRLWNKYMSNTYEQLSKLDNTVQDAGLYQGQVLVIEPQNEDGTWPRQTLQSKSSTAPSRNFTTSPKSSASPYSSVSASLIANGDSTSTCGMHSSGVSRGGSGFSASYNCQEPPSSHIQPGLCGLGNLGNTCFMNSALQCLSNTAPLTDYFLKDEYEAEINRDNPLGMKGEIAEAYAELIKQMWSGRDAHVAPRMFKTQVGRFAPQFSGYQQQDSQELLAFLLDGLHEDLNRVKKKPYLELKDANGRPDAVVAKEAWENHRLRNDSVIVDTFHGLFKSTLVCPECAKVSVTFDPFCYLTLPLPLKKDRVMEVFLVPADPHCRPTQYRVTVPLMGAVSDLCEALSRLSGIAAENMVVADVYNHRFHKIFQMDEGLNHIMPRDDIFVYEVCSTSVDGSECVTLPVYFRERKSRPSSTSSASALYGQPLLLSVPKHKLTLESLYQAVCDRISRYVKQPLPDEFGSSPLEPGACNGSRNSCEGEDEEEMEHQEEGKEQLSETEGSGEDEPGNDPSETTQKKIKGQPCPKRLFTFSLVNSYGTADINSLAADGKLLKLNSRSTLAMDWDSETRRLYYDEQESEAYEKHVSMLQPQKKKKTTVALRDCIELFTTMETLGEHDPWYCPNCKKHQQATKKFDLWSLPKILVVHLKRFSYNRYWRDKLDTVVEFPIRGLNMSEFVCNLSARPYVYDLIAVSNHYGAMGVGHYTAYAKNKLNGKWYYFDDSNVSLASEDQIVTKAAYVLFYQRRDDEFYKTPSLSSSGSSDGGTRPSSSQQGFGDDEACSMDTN
How it was run: as §1

[4] = biological target: USP16 (Homo sapiens, UniProt Q9Y5T5)
How it was run: as §1

USP16, sequence (Q9Y5T5 whole entry): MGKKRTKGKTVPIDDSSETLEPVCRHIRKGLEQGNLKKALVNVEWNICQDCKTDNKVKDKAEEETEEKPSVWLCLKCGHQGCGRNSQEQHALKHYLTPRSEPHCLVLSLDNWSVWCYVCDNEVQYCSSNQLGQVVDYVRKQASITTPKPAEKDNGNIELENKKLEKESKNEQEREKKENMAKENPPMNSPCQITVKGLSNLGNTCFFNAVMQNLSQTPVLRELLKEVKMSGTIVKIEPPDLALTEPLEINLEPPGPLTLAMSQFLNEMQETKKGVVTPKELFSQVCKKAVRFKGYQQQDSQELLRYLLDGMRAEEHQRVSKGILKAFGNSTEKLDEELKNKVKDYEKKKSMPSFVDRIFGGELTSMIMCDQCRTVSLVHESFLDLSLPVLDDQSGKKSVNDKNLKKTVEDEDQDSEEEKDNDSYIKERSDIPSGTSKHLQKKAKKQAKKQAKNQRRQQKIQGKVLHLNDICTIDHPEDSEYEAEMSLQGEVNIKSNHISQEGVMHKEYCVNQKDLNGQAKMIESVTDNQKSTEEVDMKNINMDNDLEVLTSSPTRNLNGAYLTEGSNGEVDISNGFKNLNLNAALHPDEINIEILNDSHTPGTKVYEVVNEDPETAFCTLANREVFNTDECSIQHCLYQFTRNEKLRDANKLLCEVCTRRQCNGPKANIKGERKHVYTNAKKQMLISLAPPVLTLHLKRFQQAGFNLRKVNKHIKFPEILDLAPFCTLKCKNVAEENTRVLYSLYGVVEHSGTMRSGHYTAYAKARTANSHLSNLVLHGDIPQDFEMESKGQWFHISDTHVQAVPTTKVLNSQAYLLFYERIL

remaining activity at 1 µM [1]: 108% | remaining activity at 10 µM [1]: 93.8% | remaining activity at 100 µM [1]: 93.4% | remaining activity at 1 µM [2]: 110% | remaining activity at 10 µM [2]: 100% | remaining activity at 100 µM [2]: 101% | remaining activity at 1 µM [3]: 107% | remaining activity at 10 µM [3]: 103% | remaining activity at 100 µM [3]: 98.9% | remaining activity at 1 µM [4]: 111% | remaining activity at 10 µM [4]: 100% | remaining activity at 100 µM [4]: 104%
Structure (SMILES): CC(C)(C)NS(=O)(=O)c1ccc(NC(=O)[C@H](Cc2ccccc2)NC(=O)c2ccc(F)cc2)cc1 [compound 39, CMPD-39]
